Calls of active or inactive are those of the source.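 The calls were made as follows: active = score above 15, the percent gain in GFP-over-time curve area versus untreated cells across six hours; inactive = the rest.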 Peptide text beside a SMILES is read from it. * marks the point of attachment. Cbz = O=C(OCc1ccccc1)*
Test system: yeast RJD 2456 GFP degradation, flow cytometry
Assay: PubChem AID 1207
Details: at 150 µM; hits give high values

In the case of `CC(=O)N1C(=O)C(=C2C=C(C)OC(C)=C2)c2ccccc21`, the GFP remaining is reported as 0.705% (inactive).
For `CC(C)C[C@@H](C=O)NC(=O)[C@H](CC(C)C)NC(=O)[C@H](CC(C)C)NC(=O)OCc1ccccc1` (Cbz-Leu-Leu-Leu-aldehyde), the GFP remaining was 1.91% (inactive).
